# Test: Inhibition of esterase in male Ostrinia nubilalis (European corn borer) antenna
row,IC50,SMILES
1,7.5 µM,CC/C=C\CCCCCCCCCC(=O)C(F)(F)F [(Z)-10-tridecenyl trifluoromethyl ketone]
2,0.28 µM,CC/C=C\CCCCCCCCCCC(=O)C(F)(F)F [(Z)-11-tetradecenyl trifluoromethyl ketone]

# — BindingDB's records for doi:10.1021/jf901979k (University of Lleida, 2009)
